Experimental data published in ChEMBL document CHEMBL1143244, “Conformational studies of 3-amino-1-alkyl-cyclopentane carboxamide CCR2 antagonists leading to new spirocyclic antagonists” (Bioorg Med Chem Lett, 2008).

Columns and labels:
[1] = target: T1, C-C chemokine receptor type 2 (Homo sapiens, UniProt P41597); test: Displacement of [125I]MCP1 from human CCR2 expressed in human monocytes at 1 uM; type: cell-based
Target sequence in this assay (P41597 whole entry, looked up): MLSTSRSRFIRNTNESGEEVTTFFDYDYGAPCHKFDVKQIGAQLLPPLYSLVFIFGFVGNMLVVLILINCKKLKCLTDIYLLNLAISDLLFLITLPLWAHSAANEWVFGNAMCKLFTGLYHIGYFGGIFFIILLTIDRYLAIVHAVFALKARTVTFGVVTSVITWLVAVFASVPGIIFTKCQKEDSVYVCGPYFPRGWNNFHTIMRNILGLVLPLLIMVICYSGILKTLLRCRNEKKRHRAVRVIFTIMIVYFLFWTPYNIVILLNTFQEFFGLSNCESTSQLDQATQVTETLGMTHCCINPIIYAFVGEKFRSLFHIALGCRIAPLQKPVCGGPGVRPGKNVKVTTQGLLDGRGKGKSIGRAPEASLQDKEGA

[2] = target: T1, C-C chemokine receptor type 2; test: Displacement of [125I]MCP1 from human CCR2 expressed in human monocytes; type: cell-based
Target sequence in this assay (P41597 whole entry): as the sequence (P41597 whole entry, looked up) above

Row | Compound | inhibition [1] [%] | IC50 [2] [nM]
1 | C[C@H]1CN([C@@H]2CCC3(CCN(Cc4cc(F)cc(C(F)(F)F)c4)C3=O)C2)CC[C@@]12C=Cc1ccccc12 (some centres undefined) | 18 | –
2 | C[C@H]1CN([C@@H]2CC[C@@]3(CCO[C@H]3OCc3cc(F)cc(C(F)(F)F)c3)C2)CC[C@@]12C=Cc1ccccc12 | – | 4.6
3 | CC(C)[C@]1(C(=O)NCc2cc(F)cc(C(F)(F)F)c2)CC[C@@H](N2CC[C@@]3(C=Cc4ccccc43)[C@@H](C)C2)C1 | – | 1.4
4 | C[C@H]1CN([C@@H]2CC[C@@]3(CCO[C@@H]3OCc3cc(F)cc(C(F)(F)F)c3)C2)CC[C@@]12C=Cc1ccccc12 | – | 115
